Experiments:
Assay in all cases: relative viability (nuclei count vs DMSO), 5 days (fraction); higher = more cells survive
[1] = compound: C1=CC2=C(C=CC(=C2)C=C3C(=O)NC(=NCC4=CC=CS4)S3)N=C1 [RO-3306] + O=C(CCCCCCC(=O)Nc1ccccc1)NO [Vorinostat] (partner 1 µM)
Procedure, shortened: (§1)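 Dosing by pin tool came one day after lung cancer cell lines were seeded in 1536-well plates, using either one drug or a fixed anchor-drug dose plus five library-drug doses (not always all listed) in √10 steps. After 5 days, nuclei were counted on 4× images. Relative viability is treated-well nuclei count divided by vehicle-well nuclei count, and values are medians of duplicate plates.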

[2] = compound: O=S(=O)(c1ccccc1)N(CC(F)(F)F)c1ccc(C(O)(C(F)(F)F)C(F)(F)F)cc1 + CC1(C)CCC(c2ccc(Cl)cc2)=C(CN2CCN(c3ccc(C(=O)NS(=O)(=O)c4ccc(N[C@H](CCN5CCOCC5)CSc5ccccc5)c(S(=O)(=O)C(F)(F)F)c4)cc3)CC2)C1 [Navitoclax] (partner 0.5 µM)
Procedure, shortened: as §1

[3] = compound: C1=CC2=C(C=CC(=C2)C=C3C(=O)NC(=NCC4=CC=CS4)S3)N=C1 [RO-3306] + Cc1nc(NC(=O)N2CCC[C@H]2C(N)=O)sc1-c1ccnc(C(C)(C)C(F)(F)F)c1 [Alpelisib] (partner 2 µM)
Procedure, shortened: as §1

[4] = compound: C1=CC2=C(C=CC(=C2)C=C3C(=O)NC(=NCC4=CC=CS4)S3)N=C1 [RO-3306] + C[C@@H](Oc1cc(-c2cnn(C3CCNCC3)c2)cnc1N)c1c(Cl)ccc(F)c1Cl [Crizotinib] (partner 1 µM)
Procedure, shortened: as §1

Cell Line: NCI-H2170
- relative viability ([1]; first compound 0.01 µM): 0.901
- relative viability ([1]; first compound 0.03162 µM): 0.568
- relative viability ([1]; first compound 0.1 µM): 0.886
- relative viability ([1]; first compound 0.3162 µM): 0.842
- relative viability ([1]; first compound 1 µM): 0.856
- relative viability ([2]; first compound 0.8 µM): 0.715
- relative viability ([2]; first compound 2.53 µM): 0.681
- relative viability ([2]; first compound 8 µM): 0.547
- relative viability ([3]; first compound 0.01 µM): 0.772
- relative viability ([3]; first compound 0.03162 µM): 0.687
- relative viability ([3]; first compound 0.1 µM): 0.765
- relative viability ([3]; first compound 0.3162 µM): 0.825
- relative viability ([3]; first compound 1 µM): 0.77
- relative viability ([4]; first compound 0.01 µM): 1.34
- relative viability ([4]; first compound 0.03162 µM): 0.758
- relative viability ([4]; first compound 0.1 µM): 1.15
- relative viability ([4]; first compound 0.3162 µM): 1.24
- relative viability ([4]; first compound 1 µM): 1.13

Cell Line: NCI-H2228
- relative viability ([1]; first compound 0.01 µM): 0.648
- relative viability ([1]; first compound 0.03162 µM): 0.737
- relative viability ([1]; first compound 0.1 µM): 0.615
- relative viability ([1]; first compound 0.3162 µM): 0.612
- relative viability ([1]; first compound 1 µM): 0.368
- relative viability ([2]; first compound 0.8 µM): 0.839
- relative viability ([2]; first compound 2.53 µM): 0.89
- relative viability ([2]; first compound 8 µM): 0.713
- relative viability ([3]; first compound 0.01 µM): 0.623
- relative viability ([3]; first compound 0.03162 µM): 0.777
- relative viability ([3]; first compound 0.1 µM): 0.865
- relative viability ([3]; first compound 0.3162 µM): 0.673
- relative viability ([3]; first compound 1 µM): 0.609
- relative viability ([4]; first compound 0.01 µM): 0.471
- relative viability ([4]; first compound 0.03162 µM): 0.335
- relative viability ([4]; first compound 0.1 µM): 0.408
- relative viability ([4]; first compound 0.3162 µM): 0.445
- relative viability ([4]; first compound 1 µM): 0.541

Cell Line: NCI-H2347
- relative viability ([1]; first compound 0.01 µM): 0.539
- relative viability ([1]; first compound 0.03162 µM): 0.541
- relative viability ([1]; first compound 0.1 µM): 0.51
- relative viability ([1]; first compound 0.3162 µM): 0.532
- relative viability ([1]; first compound 1 µM): 0.701
- relative viability ([2]; first compound 0.8 µM): 0.955
- relative viability ([2]; first compound 2.53 µM): 0.921
- relative viability ([2]; first compound 8 µM): 0.582
- relative viability ([3]; first compound 0.01 µM): 1.13
- relative viability ([3]; first compound 0.03162 µM): 0.759
- relative viability ([3]; first compound 0.1 µM): 1.01
- relative viability ([3]; first compound 0.3162 µM): 1.05
- relative viability ([3]; first compound 1 µM): 0.951
- relative viability ([4]; first compound 0.01 µM): 0.675
- relative viability ([4]; first compound 0.03162 µM): 0.691
- relative viability ([4]; first compound 0.1 µM): 0.718
- relative viability ([4]; first compound 0.3162 µM): 0.7
- relative viability ([4]; first compound 1 µM): 0.656

Cell Line: NCI-H2405
- relative viability ([1]; first compound 0.01 µM): 1.01
- relative viability ([1]; first compound 0.03162 µM): 0.949
- relative viability ([1]; first compound 0.1 µM): 0.968
- relative viability ([1]; first compound 0.3162 µM): 0.916
- relative viability ([1]; first compound 1 µM): 0.231
- relative viability ([2]; first compound 0.8 µM): 1.11
- relative viability ([2]; first compound 2.53 µM): 1.01
- relative viability ([2]; first compound 8 µM): 0.896
- relative viability ([3]; first compound 0.01 µM): 0.801
- relative viability ([3]; first compound 0.03162 µM): 0.707
- relative viability ([3]; first compound 0.1 µM): 0.784
- relative viability ([3]; first compound 0.3162 µM): 0.874
- relative viability ([3]; first compound 1 µM): 0.695
- relative viability ([4]; first compound 0.01 µM): 0.863
- relative viability ([4]; first compound 0.03162 µM): 0.786
- relative viability ([4]; first compound 0.1 µM): 0.864
- relative viability ([4]; first compound 0.3162 µM): 0.828
- relative viability ([4]; first compound 1 µM): 0.794

Cell Line: NCI-H3122
- relative viability ([1]; first compound 0.01 µM): 1.07
- relative viability ([1]; first compound 0.03162 µM): 0.825
- relative viability ([1]; first compound 0.1 µM): 0.993
- relative viability ([1]; first compound 0.3162 µM): 1.19
- relative viability ([1]; first compound 1 µM): 1.06
- relative viability ([2]; first compound 0.8 µM): 1.04
- relative viability ([2]; first compound 2.53 µM): 0.964
- relative viability ([2]; first compound 8 µM): 1.06
- relative viability ([3]; first compound 0.01 µM): 0.635
- relative viability ([3]; first compound 0.03162 µM): 0.738
- relative viability ([3]; first compound 0.1 µM): 0.832
- relative viability ([3]; first compound 0.3162 µM): 0.762
- relative viability ([3]; first compound 1 µM): 0.788
- relative viability ([4]; first compound 0.01 µM): 0.253
- relative viability ([4]; first compound 0.03162 µM): 0.262
- relative viability ([4]; first compound 0.1 µM): 0.244
- relative viability ([4]; first compound 0.3162 µM): 0.244
- relative viability ([4]; first compound 1 µM): 0.283

Cell Line: PC-3 [JPC-3]
- relative viability ([1]; first compound 0.01 µM): 0.649
- relative viability ([1]; first compound 0.03162 µM): 0.629
- relative viability ([1]; first compound 0.1 µM): 0.648
- relative viability ([1]; first compound 0.3162 µM): 0.735
- relative viability ([1]; first compound 1 µM): 0.524
- relative viability ([2]; first compound 0.8 µM): 0.8
- relative viability ([2]; first compound 2.53 µM): 0.724
- relative viability ([2]; first compound 8 µM): 0.7
- relative viability ([3]; first compound 0.01 µM): 1.1
- relative viability ([3]; first compound 0.03162 µM): 1
- relative viability ([3]; first compound 0.1 µM): 1.02
- relative viability ([3]; first compound 0.3162 µM): 0.98
- relative viability ([3]; first compound 1 µM): 0.98
- relative viability ([4]; first compound 0.01 µM): 1.03
- relative viability ([4]; first compound 0.03162 µM): 0.971
- relative viability ([4]; first compound 0.1 µM): 0.965
- relative viability ([4]; first compound 0.3162 µM): 1.03
- relative viability ([4]; first compound 1 µM): 0.951

Cell Line: PC-14
- relative viability ([1]; first compound 0.01 µM): 1.03
- relative viability ([1]; first compound 0.03162 µM): 0.682
- relative viability ([1]; first compound 0.1 µM): 0.72
- relative viability ([1]; first compound 0.3162 µM): 0.796
- relative viability ([1]; first compound 1 µM): 0.682
- relative viability ([2]; first compound 0.8 µM): 1.14
- relative viability ([2]; first compound 2.53 µM): 1.11
- relative viability ([2]; first compound 8 µM): 0.412
- relative viability ([3]; first compound 0.01 µM): 0.981
- relative viability ([3]; first compound 0.1 µM): 0.939
- relative viability ([3]; first compound 0.3162 µM): 0.953
- relative viability ([3]; first compound 1 µM): 0.996
- relative viability ([4]; first compound 0.01 µM): 0.977
- relative viability ([4]; first compound 0.03162 µM): 0.841
- relative viability ([4]; first compound 0.1 µM): 1.03
- relative viability ([4]; first compound 0.3162 µM): 0.864
- relative viability ([4]; first compound 1 µM): 0.836

Cell Line: RERF-LC-KJ
- relative viability ([1]; first compound 0.01 µM): 0.725
- relative viability ([1]; first compound 0.03162 µM): 0.64
- relative viability ([1]; first compound 0.1 µM): 0.67
- relative viability ([1]; first compound 0.3162 µM): 0.687
- relative viability ([1]; first compound 1 µM): 0.63
- relative viability ([2]; first compound 0.8 µM): 0.863
- relative viability ([2]; first compound 2.53 µM): 0.802
- relative viability ([2]; first compound 8 µM): 0.87
- relative viability ([3]; first compound 0.01 µM): 1.01
- relative viability ([3]; first compound 0.03162 µM): 0.708
- relative viability ([3]; first compound 0.1 µM): 0.706
- relative viability ([3]; first compound 0.3162 µM): 0.836
- relative viability ([3]; first compound 1 µM): 0.768
- relative viability ([4]; first compound 0.01 µM): 0.848
- relative viability ([4]; first compound 0.03162 µM): 1.03
- relative viability ([4]; first compound 0.1 µM): 0.797
- relative viability ([4]; first compound 0.3162 µM): 0.848
- relative viability ([4]; first compound 1 µM): 0.95

Cell Line: SK-LU-1
- relative viability ([1]; first compound 0.01 µM): 0.854
- relative viability ([1]; first compound 0.03162 µM): 0.711
- relative viability ([1]; first compound 0.1 µM): 0.786
- relative viability ([1]; first compound 0.3162 µM): 0.786
- relative viability ([1]; first compound 1 µM): 0.605
- relative viability ([2]; first compound 0.8 µM): 1.18
- relative viability ([2]; first compound 2.53 µM): 0.865
- relative viability ([2]; first compound 8 µM): 0.56
- relative viability ([3]; first compound 0.01 µM): 1.03
- relative viability ([3]; first compound 0.03162 µM): 1.07
- relative viability ([3]; first compound 0.1 µM): 0.951
- relative viability ([3]; first compound 0.3162 µM): 1.02
- relative viability ([3]; first compound 1 µM): 0.973
- relative viability ([4]; first compound 0.01 µM): 0.991
- relative viability ([4]; first compound 0.03162 µM): 0.84
- relative viability ([4]; first compound 0.1 µM): 1.03
- relative viability ([4]; first compound 0.3162 µM): 0.935
- relative viability ([4]; first compound 1 µM): 0.716
